{"source": "patent EP4257135A1", "about": "“BENZIMIDAZOLE DERIVATIVES FOR PULMONARY ARTERIAL HYPERTENSION” (Justus-Liebig-Universität Gießen, priority 2022, dated 2023)", "key": {"FHR-PAH": {"test_system": "FHR-PAH", "assay": "Fawn-hooded hypertensive rat model of established PAH, right heart catheterisation and histology", "type": "in vivo, Ratten", "settings": "FHR-PAH rats, three times weekly for two weeks", "text": "(§1) Um das therapeutische Potenzial der EP300/CREBBP-Hemmung in vivo weiter zu erforschen, haben die Erfinder Versuchstiere in drei verschiedenen Nagetiermodellen mit etablierter PAH mit der Substanz SGC-CBP30 behandelt, wobei SGC-CBP30 durch intra-tracheale Vernebelung über zwei Wochen lang dreimal wöchentlich verabreicht wurde. Es wurden folgende drei verschiedenen Nagetiermodelle für eine PAH (FHR-PAH, MCT-PAH und SuHx-PAH) getestet: • Fawn-hooded hypertensive Ratten (FHR): Das ist ein genetischer Rattenstamm, bei dem PAH im Alter spontan auftritt und der ähnliche PAH-Anomalien aufweist, wie sie bei IPAH bei Menschen nach 40 Wochen auftreten. • Durch Monocrotalin (MCT) induziertes PAH-Rattenmodell. • Ein SUGEN5416/chronische Hypoxie (SuHx)-Rattenmodell für PAH, bei dem die Ratten eine einmalige Injektion von SUGEN5416 erhielten und anschließend einer chronischen Hypoxie (10% O2) ausgesetzt wurden (SuHx-PAH).\n(§2) Für die MCT-PAH wurden männlichen und weiblichen SD-Ratten (Sprague-Dawley-Ratten) subkutan 60 mg/kg MCT (Sigma, Katalog: C2401) injiziert, um PAH zu induzieren. Bei der SuHx-PAH erhielten SD-Ratten eine einmalige subkutane Injektion von SUGEN5416 (20 mg/kg) und wurden drei Wochen lang einer normobaren Hypoxie ausgesetzt, bevor sie für zwei Wochen an die Raumluft zurückkehrten. Zwei Wochen nach der MCT-Injektion bzw. drei Wochen nach der SUGEN5416-Injektion (sobald PAH festgestellt wurde) wurden die Ratten nach dem Zufallsprinzip in vier Gruppen eingeteilt und erhielten zwei Wochen lang dreimal wöchentlich entweder Vehikel (Verabreichung von 1 % Methylcellulose in destilliertem Wasser oder intratracheale Vernebelung von 4 % DMSO in PBS als Negativkontrolle), SGC-CBP30 (Verabreichung von 10 mg/kg in 1 % Methylcellulose + destilliertem Wasser) oder SGC-CBP30 (intratracheale Vernebelung von 275 nmol/kg in 4 % DMSO + PBS). Einjährige männliche und weibliche FHR-Ratten mit etablierter PAH wurden in dieselben vier Gruppen wie beim MCT-Modell eingeteilt und den selben Behandlungsmethoden unterzogen. Für die Vernebelung wurden die Ratten mit 3%igem Isofluran betäubt. Ein 16-Gauge-Katheter wurde in die Luftröhre eingeführt. Ein Vernebler (Aerogen) wurde an den Katheter angeschlossen, und für jede Behandlung wurde ein Volumen von 50 µl SGC-CBP30 oder dessen Vehikel (als Negativkontrolle) verabreicht. Nach zweiwöchiger Behandlung wurde eine Rechtsherzkatheteruntersuchung bei geschlossenem Thorax durchgeführt, um folgende hämodynamischen Daten zu erfassen: Systolischer Rechtsventrikulärer Druck (RVSP), mittlerer PA-Druck (mPAP), Herzzeitvolumen (CO) und Schlagvolumen (SV). Der Gesamtwiderstand der Lunge (TPR) wurde durch Division von mPAP durch CO ermittelt. Nach der hämodynamischen Messung wurden den Ratten Gewebeproben entnommen. Die Experimente wurden gemäß den Richtlinien des Canadian Council on Animal Care durchgeführt. Alle Protokolle wurden von der institutionellen Ethikkommission für Tiere (Tierschutzausschuss der Universität Laval) geprüft und genehmigt (Protokollnummer 2019-018-2). Alle Experimente folgten den Richtlinien für die präklinische Forschung bei PAH.\n(§3) Der schwarze Balken zeigt 50 µm an. Die Daten sind als Mittelwert ± SD angegeben und die statistische Analyse wurde mit einem ungepaarten Student's t-Test durchgeführt. FHR, MCT und SU5416/chronische Hypoxie-Ratten: *P<0,05, **P<0,01 und ***P<0,001 gegenüber den mit Vehikel behandelten Gruppen. MCT-Rattenmodell: §P<0,05, §§P<0,01 und §§§P<0,001 gegenüber der unbehandelten Kontrollgruppe. • A: Schematische Darstellung des Versuchsaufbaus für die Behandlung von Fawn-hooded hypertensive Ratten (FHR) mit dem EP300/CREBBP-Inhibitor SGC-CBP30, der selektiv auf die Acetyltransferase EP300/CREBBP wirkt. […]"}, "PAH-SMCs": {"test_system": "PAH-SMCs", "assay": "Apoptosis in PAH smooth muscle cells", "type": "cell-based, human", "settings": "vs DMSO", "text": "PAH-FBs wurden mit verschiedenen Konzentrationen der Substanz SGC-CBP30 oder dem Lösungsmittel DMSO inkubiert, um die Zellproliferation und die Induktion von Apoptose 24 Stunden danach zu untersuchen. Die Wirkung der selektiven EP300/CREBBP-Inhibition auf die Zellproliferation wurde durch den Einbau von BrdU (Bromodeoxyuridin, 5-Bromo-2'-Deoxyuridin, BUdR, BrdUrd, Broxuridine) bewertet. Die Wirkung der Substanz SGC-CBP30 oder des Lösungsmittels DMSO auf die Induktion von Apoptose wurde durch Cell Death Detection ELISAPLUS bewertet. Dabei zeigten sich deutliche Unterschiede zwischen der Substanz SGC-CBP30 und dem Lösungsmittel DMSO.\nDas therapeutische Potenzial der EP300/CREBBP-Hemmung durch die Substanz SGC-CBP30 wurde untersucht. Dazu wurde die Wirksamkeit auf PAH-FBs und PAH-SMCs geprüft, die aus den Lungenarterien von menschlichen PAH-Patienten und aus den Lungenarterien von Ratten mit MCT-PAH (Rattenmodell mit Monocrotalin) isoliert wurden. […] Die Wirkung der EP300-Hemmung auf das vaskuläre Remodelling wurde durch Quantifizierung der prozentualen medialen Wanddicke in den mit der Substanz SGC-CBP30 inkubierten PCLS im Vergleich zu den mit DMSO inkubierten Kontrollen bewertet. Dabei zeigten sich deutliche Unterschiede zwischen der Substanz SGC-CBP30 und DMSO."}, "MCT-PAH": {"test_system": "MCT-PAH", "assay": "Monocrotaline-induced PAH rat model, right heart catheterisation and histology", "type": "in vivo, Ratten", "settings": "MCT-PAH rats, three times weekly for two weeks, intratracheal nebulisation 275 nmol/kg", "text": "as §1, §2, §3"}, "SuHx-PAH": {"test_system": "SuHx-PAH", "assay": "SUGEN5416/chronic hypoxia PAH rat model, right heart catheterisation and histology", "type": "in vivo, Ratten", "settings": "SuHx-PAH rats, three times weekly for two weeks, intratracheal nebulisation 275 nmol/kg", "text": "as §1, §2, §3"}, "[1]": {"settings": "intratracheal nebulisation 275 nmol/kg, vs vehicle"}, "[2]": {"settings": "start three weeks after SUGEN5416"}}}
{"compound": "COc1ccc(CCc2nc3cc(-c4c(C)noc4C)ccc3n2C[C@H](C)N2CCOCC2)cc1Cl", "note": "[SGC-CBP30, 2-[2-(3-Chloro-4-methoxyphenyl)ethyl]-5-(3,5-dimethyl-1,2-oxazol-4-yl)-1-[(S)-2-(morpholin-4-yl)propyl]-1H-benzimidazole]", "values": [{"measurement": "molekulare Marker für Myokardhypertrophie", "setting": "FHR-PAH", "value": "signifikant abgeschwächt"}, {"measurement": "mediale Wanddicke der distalen PAs", "setting": "FHR-PAH; intratracheal nebulisation 275 nmol/kg", "value": "signifikant verringert"}, {"measurement": "TPR", "setting": "FHR-PAH; intratracheal nebulisation 275 nmol/kg, mPAP divided by CO", "value": "signifikanten Senkung"}, {"measurement": "CO", "setting": "FHR-PAH; [1]", "value": "verbesserten sich nach der Behandlung mit der Substanz SGC-CBP30 bei FHR-PAH und MCT-PAH signifikant"}, {"measurement": "RVSP", "setting": "FHR-PAH; [1]", "value": "signifikanten Senkung"}, {"measurement": "SV", "setting": "FHR-PAH; [1]", "value": "verbesserten sich nach der Behandlung mit der Substanz SGC-CBP30 bei FHR-PAH und MCT-PAH signifikant"}, {"measurement": "mPAP", "setting": "FHR-PAH; [1]", "value": "signifikanten Senkung"}, {"measurement": "Apoptoserate", "setting": "PAH-SMCs", "value": "schwächte den hyperproliferativen Phänotyp und die Apoptoserate von PAH-FBs und PAH-SMCs deutlich ab"}, {"measurement": "RVSP", "setting": "MCT-PAH; start two weeks after MCT", "value": "signifikanten Senkung"}, {"measurement": "mPAP", "setting": "MCT-PAH; start two weeks after MCT", "value": "signifikanten Senkung"}, {"measurement": "CO", "setting": "MCT-PAH", "value": "verbesserten sich nach der Behandlung mit der Substanz SGC-CBP30 bei FHR-PAH und MCT-PAH signifikant"}, {"measurement": "SV", "setting": "MCT-PAH", "value": "verbesserten sich nach der Behandlung mit der Substanz SGC-CBP30 bei FHR-PAH und MCT-PAH signifikant"}, {"measurement": "mediale Wanddicke der distalen PAs", "setting": "MCT-PAH", "value": "signifikant verringert"}, {"measurement": "TPR", "setting": "MCT-PAH; mPAP divided by CO", "value": "signifikanten Senkung"}, {"measurement": "RVSP", "setting": "SuHx-PAH; [2]", "value": "signifikanten Senkung"}, {"measurement": "mPAP", "setting": "SuHx-PAH; [2]", "value": "signifikanten Senkung"}, {"measurement": "CO", "setting": "SuHx-PAH", "value": "verbesserte CO und SV auch bei SUGEN5416/chronischer Hypoxie-PAH signifikant"}, {"measurement": "SV", "setting": "SuHx-PAH", "value": "verbesserte CO und SV auch bei SUGEN5416/chronischer Hypoxie-PAH signifikant"}, {"measurement": "mediale Wanddicke der distalen PAs", "setting": "SuHx-PAH", "value": "signifikant verringert"}, {"measurement": "TPR", "setting": "SuHx-PAH; mPAP divided by CO", "value": "signifikanten Senkung"}]}
